Measured values from publication PMC10495264 (Nature Cell Biology, 2023).
Where “and” joins values, the source holds several entries; their conditions need not be identical. Identical values can stand only once.

Columns and labels:
[1] = system: mTORC2; experiment: mTORC2 activity in HEK293FT cells, p-AKT^S473/AKT immunoblot; format: cell-based, human
Method: Phosphorylation of Ypk1 was used as the TORC2 readout. Phosphorylation of Snf1 was used as the AMPK activation readout. Total Snf1 was detected with an antibody to a histidine (His) stretch in Snf1. […] Source numerical data and unprocessed blots are provided. Source data
(§1) Amino-acid-starvation experiments were carried out as described before[42],[43]. […] For the lipid depletion experiments, cells were cultured in medium containing 10% charcoal-stripped FBS (A3382101, Thermo Fisher Scientific), instead of full FBS, for 24 h before treatments with FASN inhibitors were performed. For FA supplementation, each FA was first conjugated to 10% FA-free BSA (fraction V; cat. no. 10735086001, Roche) for 1 h at 50 °C in a 50:50 volumetric ratio. The BSA-conjugated C16:0, C16:1, C18:1 and C18:2 FAs (100 μM) were then added to the media both 16 h previous to and at the start of the treatment with FASN inhibitors.
(§2) For standard SDS–PAGE and immunoblotting experiments, cells from a well of a 12-well plate were lysed in 250 μl of ice-cold Triton lysis buffer (50 mM Tris pH 7.5, 1% Triton X-100, 150 mM NaCl, 50 mM NaF, 2 mM Na-vanadate and 0.011 g ml^−1 β-glycerophosphate) supplemented with 1×PhosSTOP phosphatase inhibitors (cat. no. 4906837001, Roche) and 1×cOmplete protease inhibitors (cat. no. 11836153001, Roche) for 10 min on ice. The samples were clarified by centrifugation (20,000g, 15 min, 4 °C) and the supernatants were boiled in 1×SDS sample buffer (5×SDS sample buffer: 350 mM Tris–HCl pH 6.8, 30% glycerol, 600 mM DTT, 12.8% SDS and 0.12% bromophenol blue). The band intensities were quantified using the ImageJ software.

[2] = system: mTORC1; experiment: mTORC1 activity in mouse embryonic fibroblasts (MEFs), p-S6K^T389/S6K immunoblot; format: cell-based
[3] = system: mTORC1; experiment: mTORC1 activity in HEK293T cells (WT, AMPKα1/2 KO, DEPDC5 and RagA/B triple KO), p-S6K^T389/S6K immunoblot; format: cell-based, human
Method: Source numerical data and unprocessed blots are provided. Source data
as §2
Data in graphs are shown as the mean ± s.e.m. *P < 0.05, **P < 0.005, ***P < 0.0005. Source numerical data and unprocessed blots are provided. Source data

[4] = system: mTORC1; experiment: mTORC1 activity in U2OS cells, immunoblot; format: cell-based, human; conditions: Fasnall 25 μM 30 min; cerulenin 50 μM 2 or 4 h
[5] = system: ERK1/2; experiment: ERK1/2 phosphorylation immunoblot; format: cell-based, human; conditions: ED Fig. 5k; relative to DMSO
Method: as §2
(§3) Data in graphs are shown as the mean ± s.e.m. *P < 0.05, **P < 0.005. Source numerical data and unprocessed blots are provided. Source data

[6] = system: mTOR lysosomal localization; experiment: Co-localization of mTOR with LAMP2, confocal microscopy; format: cell-based, human
[7] = system: AMPK; experiment: AMPK and ACC1 phosphorylation immunoblot; format: cell-based, human; conditions: relative to DMSO
Method: as §2, §3

[8] = system: mTORC1; experiment: mTORC1 activity in HEK293FT cells (WT and knockout lines), phosphorylation of S6K, 4E-BP1, Grb10, TFEB by immunoblot; format: cell-based, human; conditions: for p-S6K(T389)/S6K: Replicates 1-3, DMSO = 1 (ED Fig. 8h)
Method: Data represent the median fluorescence intensity of OPP Alexa Fluor 488; n = 6 biological replicates from two independent experiments. b,c,e,g,i,k,l, Data are the mean ± s.e.m. *P < 0.05, **P < 0.005, ***P < 0.0005. […] Source numerical data and unprocessed blots are provided. Source data
as §1, §2

[9] = Fasnall 25 μM 30 min, cerulenin 50 μM 4 h

## Cc1sc2ncnc(NC3CCN(Cc4ccccc4)C3)c2c1C (stereo not shown) [Fasnall]
[1]; 25 μM Fasnall 30 min, DMSO = 1, n = 4, Fig. 3b
  p-AKT(S473)/AKT, Mean: 1.017
[1]; [9]
  phosphorylation of Akt (mTORC2 substrate): did not significantly alter
[2]; ED Fig. 4b, relative to DMSO
  p-S6K(T389)/S6K, Mean: 0.4247
[2]; Fasnall 25 μM 30 min, cerulenin 50 μM 2 or 4 h
  mTORC1 activity in MEFs: downregulates
[3]; ED Fig. 7b, AMPKa1/2 KO, 30', relative to AMPKa1/2 KO DMSO
  p-S6K(T389)/S6K, Mean: 0.6838
[3]; ED Fig. 7b, AMPKa1/2 KO, 60', relative to AMPKa1/2 KO DMSO
  p-S6K(T389)/S6K, Mean: 0.7858
[3]; ED Fig. 7b, WT, 30', relative to WT DMSO
  p-S6K(T389)/S6K, Mean: 0.4433
[3]; ED Fig. 7b, WT, 60', relative to WT DMSO
  p-S6K(T389)/S6K, Mean: 0.4902
[3]; ED Fig. 7g, DEPDC5+RagA/B KO, 30', relative to DEPDC5+RagA/B KO DMSO
  p-S6K(T389)/S6K, Mean: 0.2954
[3]; ED Fig. 7g, DEPDC5+RagA/B KO, 60', relative to DEPDC5+RagA/B KO DMSO
  p-S6K(T389)/S6K, Mean: 0.2391
[3]; ED Fig. 7g, WT, 30', relative to WT DMSO
  p-S6K(T389)/S6K, Mean: 0.4545
[3]; ED Fig. 7g, WT, 60', relative to WT DMSO
  p-S6K(T389)/S6K, Mean: 0.4895
[4]
  mTORC1 activity in U2OS: downregulates
[5]
  p-ERK(T202/Y204)/ERK, Mean: 0.525
[6]; Fasnall 30', Replicate 2, individual cells (ED Fig. 8b)
  mTOR/LAMP2 colocalization (Manders' coefficient): 0.475 and 0.399 and 0.259 and 0.343 and 0.372 and 0.439 and 0.359 and 0.413 and 0.403 and 0.14 and 0.1 and 0.291 and 0.207 and 0.085 and 0.364 and 0.524 and 0.395 and 0.22 and 0.281 and 0.339 and 0.627 and 0.352 and 0.483 and 0.276 and 0.195 and 0.511 and 0.191
[6]; Fasnall 30', Replicate 4, individual cells (ED Fig. 8b)
  mTOR/LAMP2 colocalization (Manders' coefficient): 0.446 and 0.648 and 0.366 and 0.481 and 0.313 and 0.232 and 0.1 and 0.151 and 0.321 and 0.261 and 0.549 and 0.486 and 0.59 and 0.448 and 0.288 and 0.329 and 0.377 and 0.426 and 0.197 and 0.422 and 0.449 and 0.465 and 0.297 and 0.542 and 0.319 and 0.458 and 0.212 and 0.351 and 0.306
[6]; Fasnall 30', mean of pooled individual cells (ED Fig. 8b), DMSO mean 0.568258
  mTOR/LAMP2 colocalization (Manders' coefficient), Mean: 0.3868
[6]; Fasnall 60', Replicate 2, individual cells (ED Fig. 8b)
  mTOR/LAMP2 colocalization (Manders' coefficient): 0.202 and 0.487 and 0.43 and 0.287 and 0.399 and 0.342 and 0.295 and 0.326 and 0.268 and 0.605 and 0.328 and 0.333 and 0.315 and 0.375 and 0.636 and 0.498 and 0.603 and 0.513 and 0.443
[6]; Fasnall 60', Replicate 4, individual cells (ED Fig. 8b)
  mTOR/LAMP2 colocalization (Manders' coefficient): 0.425 and 0.202 and 0.399 and 0.49 and 0.499 and 0.282 and 0.303 and 0.344 and 0.361 and 0.405 and 0.518 and 0.461 and 0.434 and 0.504 and 0.271 and 0.298 and 0.295 and 0.41 and 0.416 and 0.567 and 0.365 and 0.689 and 0.431 and 0.398 and 0.488
[6]; Fasnall 60', mean of pooled individual cells (ED Fig. 8b), DMSO mean 0.568258
  mTOR/LAMP2 colocalization (Manders' coefficient), Mean: 0.4158
[6]; HEK293FT, 25 μM Fasnall or 50 μM cerulenin
  mTOR localization at lysosomes (co-localization with LAMP2): significant dissociation
[6]; Luc-expressing cells, Fasnall 30' (ED Fig. 8j), Luc DMSO mean 0.429851
  mTOR/LAMP2 colocalization (Manders' coefficient), Mean: 0.3242
[6]; RagA(QL)/C(SN)-expressing cells, Fasnall 30' (ED Fig. 8j), DMSO mean 0.528308
  mTOR/LAMP2 colocalization (Manders' coefficient), Mean: 0.4688
[7]; ED Fig. 5b
  p-AMPK(T172)/AMPK, Mean: 4.063
[7]; ED Fig. 5c
  p-ACC1(S79)/ACC1, Mean: 2.603
[8]; ED Fig. 3b, relative to DMSO
  p-Grb10(S476)/Grb10, Mean: 0.4881
[8]; ED Fig. 3c, relative to DMSO
  p-TFEB(S211)/TFEB, Mean: 0.3867
[8]; ED Fig. 4n, relative to DMSO
  p-S6K(T389)/S6K, Mean: 0.2327
[8]; [9]
  mTORC1 activity towards Grb10 and TFEB (cerulenin: also 4E-BP1): downregulates
[8]; HEK293FT cells, Fasnall, cerulenin or siFASN
  mTORC1 activity (phosphorylation of S6K, 4E-BP1, Grb10 and TFEB): suppressed
[8]; HEK293FT expressing FLAG-ACC1 S79A, Fasnall 25 μM, 30 min, respective DMSO = 1, Fig. 4b
  p-S6K(T389)/S6K, Mean: 0.3193
[8]; HEK293FT expressing FLAG-ACC1 WT, Fasnall 25 μM, 30 min, respective DMSO = 1, Fig. 4b
  p-S6K(T389)/S6K, Mean: 0.6407
[8]; HEK293FT expressing FLAG-Luc, Fasnall 25 μM, 30 min, respective DMSO = 1, Fig. 4b
  p-S6K(T389)/S6K, Mean: 0.6832
[8]; HEK293FT, 25 μM Fasnall 30', DMSO = 1, n = 6, Fig. 2g
  p-S6K(T389)/S6K, Mean: 0.526
[8]; HEK293FT, 25 μM Fasnall 60', DMSO = 1, n = 6, Fig. 2g
  p-S6K(T389)/S6K, Mean: 0.5445
[8]; Luc-expressing cells, Fasnall 30', DMSO = 1 (ED Fig. 8h)
  p-S6K(T389)/S6K, Mean: 0.4328
[8]; Luc-expressing cells, Fasnall 30'
  p-S6K(T389)/S6K: 0.4633 and 0.548 and 0.2872
[8]; Luc-expressing cells, Fasnall 60', DMSO = 1 (ED Fig. 8h)
  p-S6K(T389)/S6K, Mean: 0.3861
[8]; Luc-expressing cells, Fasnall 60'
  p-S6K(T389)/S6K: 0.4934 and 0.1817 and 0.4832
[8]; RagA(QL)/C(SN)-expressing cells, Fasnall 30', DMSO = 1 (ED Fig. 8h)
  p-S6K(T389)/S6K, Mean: 0.4794
[8]; RagA(QL)/C(SN)-expressing cells, Fasnall 30'
  p-S6K(T389)/S6K: 0.6415 and 0.4768 and 0.3198
[8]; RagA(QL)/C(SN)-expressing cells, Fasnall 60', DMSO = 1 (ED Fig. 8h)
  p-S6K(T389)/S6K, Mean: 0.4741
[8]; RagA(QL)/C(SN)-expressing cells, Fasnall 60'
  p-S6K(T389)/S6K: 0.6662 and 0.3714 and 0.3847
[8]; RagA/B KO HEK293FT, 25 μM Fasnall 30', respective DMSO = 1, n = 4, Fig. 5i
  p-S6K(T389)/S6K, Mean: 0.306
[8]; RagA/B KO HEK293FT, 25 μM Fasnall 60', respective DMSO = 1, n = 4, Fig. 5i
  p-S6K(T389)/S6K, Mean: 0.3694
[8]; TSC1 KO HEK293FT, 25 μM Fasnall 30 min, respective DMSO = 1, n = 6, Fig. 5n
  p-S6K(T389)/S6K, Mean: 0.4771
[8]; WT HEK293FT, 25 μM Fasnall 30', respective DMSO = 1, n = 4, Fig. 5i
  p-S6K(T389)/S6K, Mean: 0.3695
[8]; WT HEK293FT, 25 μM Fasnall 60', respective DMSO = 1, n = 4, Fig. 5i
  p-S6K(T389)/S6K, Mean: 0.3619
[8]; WT HEK293FT, 25 μM Fasnall 30 min, respective DMSO = 1, n = 6, Fig. 5n
  p-S6K(T389)/S6K, Mean: 0.3275
